The target of experiment [1] is T1, Cytoplasmic tyrosine-protein kinase BMX (Homo sapiens) (UniProt P51813).
T1 sequence (whole entry): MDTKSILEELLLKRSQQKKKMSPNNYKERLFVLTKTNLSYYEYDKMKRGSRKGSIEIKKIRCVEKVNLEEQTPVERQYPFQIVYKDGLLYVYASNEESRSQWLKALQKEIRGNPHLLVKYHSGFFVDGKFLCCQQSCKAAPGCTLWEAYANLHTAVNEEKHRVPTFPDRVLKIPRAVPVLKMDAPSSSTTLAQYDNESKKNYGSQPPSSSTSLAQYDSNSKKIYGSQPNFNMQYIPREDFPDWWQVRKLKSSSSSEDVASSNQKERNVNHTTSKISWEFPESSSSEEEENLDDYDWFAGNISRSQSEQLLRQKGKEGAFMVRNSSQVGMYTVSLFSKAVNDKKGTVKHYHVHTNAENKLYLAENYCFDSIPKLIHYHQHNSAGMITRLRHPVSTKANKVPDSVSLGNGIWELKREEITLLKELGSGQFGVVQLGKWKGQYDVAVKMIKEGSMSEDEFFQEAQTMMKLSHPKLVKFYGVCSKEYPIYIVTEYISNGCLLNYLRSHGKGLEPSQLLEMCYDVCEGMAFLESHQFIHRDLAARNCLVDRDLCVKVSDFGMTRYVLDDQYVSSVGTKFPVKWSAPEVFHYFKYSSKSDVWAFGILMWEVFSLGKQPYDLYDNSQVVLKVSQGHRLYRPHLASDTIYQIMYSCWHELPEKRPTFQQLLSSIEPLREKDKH
The experiment in a line: Inhibition of human full length recombinant Bmx at 5 nM by radiometric scintillation counting analysis relative to control.

In experiment [2] the target is T2, Macrophage colony-stimulating factor 1 receptor (Homo sapiens, UniProt P07333). In words: Inhibition of human recombinant CSF1R using ATP/Ulight-TK peptide at 5 nM incubated for 15 mins relative to control.
Experiment [3] deals with T3, Tyrosine-protein kinase ITK/TSK (Homo sapiens) (UniProt Q08881).
T3 sequence (whole entry): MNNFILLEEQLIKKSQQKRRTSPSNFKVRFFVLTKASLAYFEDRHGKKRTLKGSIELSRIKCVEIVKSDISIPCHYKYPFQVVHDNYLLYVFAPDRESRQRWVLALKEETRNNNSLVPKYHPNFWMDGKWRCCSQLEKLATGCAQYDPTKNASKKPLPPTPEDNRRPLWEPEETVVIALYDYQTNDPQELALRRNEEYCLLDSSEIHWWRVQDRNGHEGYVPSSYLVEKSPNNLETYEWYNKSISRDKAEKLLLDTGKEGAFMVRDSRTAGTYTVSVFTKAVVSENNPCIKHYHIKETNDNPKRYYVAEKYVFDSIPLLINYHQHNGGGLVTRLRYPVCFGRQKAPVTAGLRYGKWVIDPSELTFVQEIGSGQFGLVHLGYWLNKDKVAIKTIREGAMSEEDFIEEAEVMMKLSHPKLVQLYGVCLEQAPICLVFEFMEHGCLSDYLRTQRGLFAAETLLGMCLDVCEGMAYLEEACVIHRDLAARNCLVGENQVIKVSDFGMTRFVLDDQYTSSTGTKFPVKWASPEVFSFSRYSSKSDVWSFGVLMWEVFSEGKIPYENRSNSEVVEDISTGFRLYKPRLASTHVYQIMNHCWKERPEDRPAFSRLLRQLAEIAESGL
The experiment in a line: Inhibition of human recombinant ITK (352 to 617) at 5 nM by radiometric scintillation counting analysis relative to control.

For experiment [4], the target named is Proto-oncogene tyrosine-protein kinase Src (Homo sapiens, UniProt P12931). The experiment in a line: Inhibition of human recombinant Src (1-530) at 5 nM by radiometric scintillation counting analysis relative to control.
Experiment [5] deals with Tyrosine-protein kinase Yes (Homo sapiens, UniProt P07947). The experiment in a line: Inhibition of human full length recombinant Yes at 5 nM by radiometric scintillation counting analysis relative to control.
Experiment [6] concerns the target T4, Tyrosine-protein kinase Blk (Homo sapiens, UniProt P51451). In words: Inhibition of human full length recombinant BLK at 50 nM by radiometric scintillation counting analysis relative to control.
Target sequence in this assay (P51451 2-505 limits assumed): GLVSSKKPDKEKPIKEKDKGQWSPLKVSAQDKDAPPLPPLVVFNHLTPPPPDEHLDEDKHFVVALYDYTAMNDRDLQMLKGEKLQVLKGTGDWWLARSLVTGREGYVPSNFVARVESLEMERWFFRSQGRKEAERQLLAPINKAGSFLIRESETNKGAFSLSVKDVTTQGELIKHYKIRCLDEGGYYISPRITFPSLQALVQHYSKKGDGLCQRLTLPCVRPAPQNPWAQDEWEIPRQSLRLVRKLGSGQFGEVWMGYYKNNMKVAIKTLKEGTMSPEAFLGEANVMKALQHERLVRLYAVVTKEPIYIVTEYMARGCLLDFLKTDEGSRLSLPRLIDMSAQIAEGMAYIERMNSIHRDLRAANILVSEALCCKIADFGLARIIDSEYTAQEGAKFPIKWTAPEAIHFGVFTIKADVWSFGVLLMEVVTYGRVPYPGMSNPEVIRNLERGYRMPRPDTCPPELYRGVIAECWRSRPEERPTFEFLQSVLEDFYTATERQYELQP
The target of experiment [7] is Mast/stem cell growth factor receptor Kit (Homo sapiens) (UniProt P10721). In words: Inhibition of human recombinant c-Kit at 50 nM by radiometric scintillation counting analysis relative to control.
Experiment [8] has as its target T5, Tyrosine-protein kinase ZAP-70 (Homo sapiens) (UniProt P43403).
T5 sequence (whole entry): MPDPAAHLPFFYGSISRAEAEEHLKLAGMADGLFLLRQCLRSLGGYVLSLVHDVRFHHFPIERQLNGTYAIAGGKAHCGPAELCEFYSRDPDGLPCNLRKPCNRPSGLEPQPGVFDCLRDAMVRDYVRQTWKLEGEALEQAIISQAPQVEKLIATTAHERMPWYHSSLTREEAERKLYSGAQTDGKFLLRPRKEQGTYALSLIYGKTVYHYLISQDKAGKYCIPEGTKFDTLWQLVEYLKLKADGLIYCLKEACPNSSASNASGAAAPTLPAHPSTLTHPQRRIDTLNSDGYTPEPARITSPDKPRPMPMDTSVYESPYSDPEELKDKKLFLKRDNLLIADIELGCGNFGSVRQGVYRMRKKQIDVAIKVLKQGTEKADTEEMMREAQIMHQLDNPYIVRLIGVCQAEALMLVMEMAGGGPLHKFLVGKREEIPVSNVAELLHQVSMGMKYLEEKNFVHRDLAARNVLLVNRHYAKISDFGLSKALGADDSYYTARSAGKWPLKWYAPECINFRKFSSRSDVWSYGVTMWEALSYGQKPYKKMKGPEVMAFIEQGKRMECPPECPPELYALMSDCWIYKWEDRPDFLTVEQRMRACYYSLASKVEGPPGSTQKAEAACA
In words: Inhibition of human full length recombinant ZAP70 at 50 nM by radiometric scintillation counting analysis relative to control.

Experiment [9] addresses T4, Tyrosine-protein kinase Blk. In words: Inhibition of human full length recombinant BLK at 500 nM by radiometric scintillation counting analysis relative to control.
Target sequence in this assay (P51451 2-505 limits assumed): as the sequence (P51451 2-505 limits assumed) above
Experiment [10] has as its target Platelet-derived growth factor receptor beta (Homo sapiens) (UniProt P09619). In words: Inhibition of human recombinant PDGFRbeta (557 to end) at 500 nM by radiometric scintillation counting analysis relative to control.
For experiment [11], the target named is T4, Tyrosine-protein kinase Blk. The experiment in a line: Inhibition of human full length recombinant BLK by radiometric scintillation counting analysis.
Target sequence in this assay (P51451 whole entry): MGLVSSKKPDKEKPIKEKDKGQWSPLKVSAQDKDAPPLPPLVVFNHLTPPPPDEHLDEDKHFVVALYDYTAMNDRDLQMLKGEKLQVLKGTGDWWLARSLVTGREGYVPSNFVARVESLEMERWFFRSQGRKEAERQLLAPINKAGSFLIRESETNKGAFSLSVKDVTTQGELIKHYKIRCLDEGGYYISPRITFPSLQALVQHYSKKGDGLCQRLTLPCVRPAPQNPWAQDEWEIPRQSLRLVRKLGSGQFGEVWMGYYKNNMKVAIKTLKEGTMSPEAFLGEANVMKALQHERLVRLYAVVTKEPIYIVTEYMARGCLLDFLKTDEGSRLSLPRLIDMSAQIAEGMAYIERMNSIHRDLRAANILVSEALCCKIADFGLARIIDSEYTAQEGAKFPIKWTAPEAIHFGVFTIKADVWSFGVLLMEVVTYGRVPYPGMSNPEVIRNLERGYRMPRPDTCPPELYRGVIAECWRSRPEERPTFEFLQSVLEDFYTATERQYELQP
Experiment [12] concerns the target T2, Macrophage colony-stimulating factor 1 receptor. In words: Inhibition of human recombinant CSF1R using ATP/Ulight-TK peptide at 50 nM incubated for 15 mins.

In general, inhibition refers to the drop in the measured response relative to a control, in per cent. In general, IC50 refers to the concentration that gives 50% inhibition.

Each structure is given as a SMILES string.

Mast/stem cell growth factor receptor Kit (Homo sapiens), sequence (P10721 whole entry): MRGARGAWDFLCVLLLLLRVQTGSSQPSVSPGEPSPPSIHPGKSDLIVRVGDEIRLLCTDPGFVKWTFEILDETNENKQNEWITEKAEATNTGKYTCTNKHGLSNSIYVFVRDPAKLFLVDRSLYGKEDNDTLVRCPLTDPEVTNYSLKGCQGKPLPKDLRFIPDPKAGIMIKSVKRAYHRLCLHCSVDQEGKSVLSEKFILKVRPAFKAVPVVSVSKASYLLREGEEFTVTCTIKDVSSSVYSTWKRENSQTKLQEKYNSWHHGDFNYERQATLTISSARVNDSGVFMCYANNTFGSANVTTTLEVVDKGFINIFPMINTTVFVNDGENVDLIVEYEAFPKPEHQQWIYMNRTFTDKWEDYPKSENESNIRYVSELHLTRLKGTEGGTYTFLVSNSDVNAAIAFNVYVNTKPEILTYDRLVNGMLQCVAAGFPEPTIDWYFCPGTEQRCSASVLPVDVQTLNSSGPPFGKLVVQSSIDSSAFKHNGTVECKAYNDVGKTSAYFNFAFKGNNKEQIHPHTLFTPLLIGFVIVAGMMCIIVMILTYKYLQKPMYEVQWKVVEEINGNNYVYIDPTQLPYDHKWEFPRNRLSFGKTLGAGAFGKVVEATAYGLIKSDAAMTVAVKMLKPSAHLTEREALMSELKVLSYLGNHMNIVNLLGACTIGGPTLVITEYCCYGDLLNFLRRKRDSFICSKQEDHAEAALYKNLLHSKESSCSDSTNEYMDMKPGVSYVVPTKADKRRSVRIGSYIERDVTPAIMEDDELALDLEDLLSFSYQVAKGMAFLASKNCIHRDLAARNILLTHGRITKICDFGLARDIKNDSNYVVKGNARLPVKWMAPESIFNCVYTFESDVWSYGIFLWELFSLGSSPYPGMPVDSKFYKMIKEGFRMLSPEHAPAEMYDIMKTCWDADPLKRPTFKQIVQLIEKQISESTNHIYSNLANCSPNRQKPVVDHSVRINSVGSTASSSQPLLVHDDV
Platelet-derived growth factor receptor beta (Homo sapiens), sequence (P09619 whole entry): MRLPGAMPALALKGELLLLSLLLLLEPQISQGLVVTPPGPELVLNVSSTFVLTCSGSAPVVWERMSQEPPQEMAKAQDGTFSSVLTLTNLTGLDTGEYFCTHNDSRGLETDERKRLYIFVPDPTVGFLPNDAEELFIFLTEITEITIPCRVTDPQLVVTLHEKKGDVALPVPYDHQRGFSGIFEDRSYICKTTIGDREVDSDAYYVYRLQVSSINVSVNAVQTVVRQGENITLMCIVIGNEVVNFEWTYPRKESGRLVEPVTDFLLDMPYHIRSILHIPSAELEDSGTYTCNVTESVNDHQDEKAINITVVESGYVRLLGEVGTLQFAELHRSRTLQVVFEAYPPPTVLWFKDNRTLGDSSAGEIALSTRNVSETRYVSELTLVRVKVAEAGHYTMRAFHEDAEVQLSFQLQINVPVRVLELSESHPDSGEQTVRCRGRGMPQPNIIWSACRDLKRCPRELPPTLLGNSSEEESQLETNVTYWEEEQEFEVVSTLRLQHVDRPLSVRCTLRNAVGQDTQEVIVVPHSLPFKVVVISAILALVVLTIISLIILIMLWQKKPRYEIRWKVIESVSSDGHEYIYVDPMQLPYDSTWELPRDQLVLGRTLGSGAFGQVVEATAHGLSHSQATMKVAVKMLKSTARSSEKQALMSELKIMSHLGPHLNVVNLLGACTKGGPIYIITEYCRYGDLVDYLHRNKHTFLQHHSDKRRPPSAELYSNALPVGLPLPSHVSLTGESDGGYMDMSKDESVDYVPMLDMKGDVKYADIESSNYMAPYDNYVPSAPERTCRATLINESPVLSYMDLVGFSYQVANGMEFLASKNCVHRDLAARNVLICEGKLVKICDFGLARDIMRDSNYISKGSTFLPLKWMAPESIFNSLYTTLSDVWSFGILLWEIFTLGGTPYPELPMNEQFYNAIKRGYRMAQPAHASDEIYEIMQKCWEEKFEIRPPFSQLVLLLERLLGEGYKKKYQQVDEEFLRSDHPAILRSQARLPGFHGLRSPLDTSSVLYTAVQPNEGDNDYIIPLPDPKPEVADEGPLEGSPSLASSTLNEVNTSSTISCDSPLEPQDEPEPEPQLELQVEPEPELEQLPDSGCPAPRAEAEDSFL
T2 sequence (P07333 whole entry): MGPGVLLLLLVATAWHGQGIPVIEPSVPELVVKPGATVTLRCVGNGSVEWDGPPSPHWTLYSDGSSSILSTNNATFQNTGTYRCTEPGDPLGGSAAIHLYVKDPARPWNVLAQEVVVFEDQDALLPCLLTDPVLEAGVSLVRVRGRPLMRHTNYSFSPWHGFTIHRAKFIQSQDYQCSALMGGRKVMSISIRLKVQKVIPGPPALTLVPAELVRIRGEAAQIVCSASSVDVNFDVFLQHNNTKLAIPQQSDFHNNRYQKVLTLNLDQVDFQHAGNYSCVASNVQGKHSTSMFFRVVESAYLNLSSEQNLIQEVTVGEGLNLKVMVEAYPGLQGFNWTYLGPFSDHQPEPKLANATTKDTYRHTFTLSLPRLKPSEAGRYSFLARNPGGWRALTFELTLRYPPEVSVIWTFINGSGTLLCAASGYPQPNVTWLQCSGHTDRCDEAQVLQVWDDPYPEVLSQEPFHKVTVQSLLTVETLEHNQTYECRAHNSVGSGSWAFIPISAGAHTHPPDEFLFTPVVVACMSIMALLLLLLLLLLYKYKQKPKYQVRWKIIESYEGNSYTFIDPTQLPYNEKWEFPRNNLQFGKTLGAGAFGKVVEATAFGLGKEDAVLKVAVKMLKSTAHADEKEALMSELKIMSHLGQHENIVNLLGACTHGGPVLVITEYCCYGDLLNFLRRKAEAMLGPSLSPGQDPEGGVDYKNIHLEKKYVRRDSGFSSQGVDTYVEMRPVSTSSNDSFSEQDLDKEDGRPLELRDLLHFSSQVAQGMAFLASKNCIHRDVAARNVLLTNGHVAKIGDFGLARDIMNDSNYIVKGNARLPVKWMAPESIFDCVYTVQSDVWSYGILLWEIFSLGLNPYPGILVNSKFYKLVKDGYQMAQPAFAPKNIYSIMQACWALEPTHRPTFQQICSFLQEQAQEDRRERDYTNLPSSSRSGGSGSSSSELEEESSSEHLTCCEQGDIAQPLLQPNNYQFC
Proto-oncogene tyrosine-protein kinase Src, sequence (P12931 2-536 limits assumed): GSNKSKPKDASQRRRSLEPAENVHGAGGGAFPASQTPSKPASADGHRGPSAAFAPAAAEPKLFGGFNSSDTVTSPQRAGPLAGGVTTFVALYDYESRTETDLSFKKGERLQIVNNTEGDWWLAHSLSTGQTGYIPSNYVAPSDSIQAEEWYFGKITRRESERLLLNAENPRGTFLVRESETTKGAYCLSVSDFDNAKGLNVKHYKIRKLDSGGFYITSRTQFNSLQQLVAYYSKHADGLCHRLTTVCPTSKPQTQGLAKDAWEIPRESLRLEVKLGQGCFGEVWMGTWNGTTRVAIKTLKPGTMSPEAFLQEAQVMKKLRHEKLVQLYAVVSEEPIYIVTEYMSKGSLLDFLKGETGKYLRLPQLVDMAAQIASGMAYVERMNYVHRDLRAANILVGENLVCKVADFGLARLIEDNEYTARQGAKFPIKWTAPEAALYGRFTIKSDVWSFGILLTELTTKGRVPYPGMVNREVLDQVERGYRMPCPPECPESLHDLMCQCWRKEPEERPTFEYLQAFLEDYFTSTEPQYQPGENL

For the molecule `Cc1ccc(C(=O)Nc2ccc(OC(F)(F)F)cc2)cc1C#Cc1cc(-c2cnn(C)c2)cnc1N`, the inhibition in experiment [1] is -6%; in experiment [2] it was 39%; in experiment [3], 0%; in [4], 71%; in experiment [5], 0%; in experiment [6], 69%. The inhibition was 15% in [7], 6% in [8], 99% in experiment [9] and 71% in experiment [10].
For the molecule `Cc1ccc(C(=O)Nc2cc(C(F)(F)F)cc(C(F)(F)F)c2)cc1C#Cc1cc(-c2cnn(C)c2)cnc1N`, the inhibition in experiment [1] was 16%; in experiment [2], 25%; in experiment [3], -8%; in experiment [4] it was -10%; in experiment [6] it was 56%; in [7], -10%. Further, the inhibition in experiment [8] is 12%; in experiment [9] it was 98%; in [10] it was 12%. In addition, the IC50 turned out to be 0.056 µM in experiment [11] and 0.048 µM in [12].
As for `Cc1ccc(C(=O)Nc2ccc(Cl)cc2Cl)cc1C#Cc1cc(-c2cnn(C)c2)cnc1N`, the inhibition in experiment [1] was 21%; in experiment [2] it was 34%; in experiment [3] it was -5%; in experiment [4], 4%; in experiment [5] it was -7%; in [6] it was 13%. In addition, the inhibition in [7] worked out at 21%; in experiment [8], 2%; in [9] it was 50%; in experiment [10] it was 83%. For the same molecule, the IC50 in experiment [11] was > 1 µM; in [12], 0.011 µM.

Values taken from ChEMBL document CHEMBL4837249, “Discovery of Potent Antiallergic Agents Based on an o-Aminopyridinyl Alkynyl Scaffold” (J Med Chem, 2021).
